Tests used:
[1] = molecular target: hERG (Homo sapiens (Human), UniProt Q12809); experiment: Patch clamp assay (hERG tail currents, whole-cell); assay type: cell-based; details: hERG transfected HEK 293 cells; for hERG % Remaining 30 μM: 30 μM compound; for hERG % Remaining 10 μM: 10 μM compound
Experimental: The 35 mm culture dishes upon which cells were seeded at a density allowing single cells to be recorded were placed on the dish holder of the microscope and continuously perfused (at approximately 1 mL/min) with the bath solution described in section 4.6. All solutions applied to cells including the pipette solution were maintained at room temperature (19° C. to 30° C.). After formation of a Gigaohm seal between the patch electrodes and individual hERG stably transfected HEK 293 cells (pipette resistance range: 2.0 MΩ2 to 7.0 MΩ; seal resistance range: >1GΩ) the cell membrane across the pipette tip was ruptured to assure electrical access to the cell interior (whole-cell patch-configuration). In case the quality of the seal was poor, the process of seal formation was repeated with a different cell and a new pipette. As soon as a stable seal could be established, hERG outward tail currents were measured upon depolarization of the cell membrane to +20 mV for 2s (activation of channels) from a holding potential of −80 mV and upon subsequent repolarization to −40 mV for 3 s. This voltage protocol (as shown below) was run at least 10 times at intervals of 10 s. If current density was judged to be too low for measurement, another cell was recorded.
During wash-in of the test item the voltage protocol indicated above was run continuously again at 10 s intervals until the steady-state level of block was reached.
The IC50 was determined by fitting the dose response curve with a 2-parameter logistic function (amax=100%).

[2] = molecular target: Menin-MLL (Homo sapiens (Human), UniProt O00255); experiment: Determination of binding constants (Ki) to Menin-MLL (HTRF); details: HTRF, 0.25 nM H-FL-Menin, 3.2 nM FITC-MLL-4-43, 24 hr incubation; for Ki: read-out: Menin-MLL Ki HTRF Assay: Ki
Chain of Menin-MLL (O00255 whole entry): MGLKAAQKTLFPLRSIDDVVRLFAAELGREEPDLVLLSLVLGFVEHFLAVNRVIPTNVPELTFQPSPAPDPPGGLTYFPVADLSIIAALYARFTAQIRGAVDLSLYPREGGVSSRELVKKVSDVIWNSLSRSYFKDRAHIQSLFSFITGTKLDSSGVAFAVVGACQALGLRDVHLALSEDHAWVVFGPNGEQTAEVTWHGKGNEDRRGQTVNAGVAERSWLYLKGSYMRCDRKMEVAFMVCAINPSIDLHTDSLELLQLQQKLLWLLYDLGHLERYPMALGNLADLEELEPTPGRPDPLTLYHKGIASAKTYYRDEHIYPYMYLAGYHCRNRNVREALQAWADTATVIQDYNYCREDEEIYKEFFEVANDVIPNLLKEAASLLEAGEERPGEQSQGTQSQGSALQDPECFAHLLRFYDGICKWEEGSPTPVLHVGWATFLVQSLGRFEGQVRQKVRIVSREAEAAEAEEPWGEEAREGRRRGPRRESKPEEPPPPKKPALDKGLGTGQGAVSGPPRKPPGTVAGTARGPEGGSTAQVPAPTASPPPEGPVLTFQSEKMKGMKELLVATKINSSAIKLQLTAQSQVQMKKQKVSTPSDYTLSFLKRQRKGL

Chain of hERG (Q12809 whole entry): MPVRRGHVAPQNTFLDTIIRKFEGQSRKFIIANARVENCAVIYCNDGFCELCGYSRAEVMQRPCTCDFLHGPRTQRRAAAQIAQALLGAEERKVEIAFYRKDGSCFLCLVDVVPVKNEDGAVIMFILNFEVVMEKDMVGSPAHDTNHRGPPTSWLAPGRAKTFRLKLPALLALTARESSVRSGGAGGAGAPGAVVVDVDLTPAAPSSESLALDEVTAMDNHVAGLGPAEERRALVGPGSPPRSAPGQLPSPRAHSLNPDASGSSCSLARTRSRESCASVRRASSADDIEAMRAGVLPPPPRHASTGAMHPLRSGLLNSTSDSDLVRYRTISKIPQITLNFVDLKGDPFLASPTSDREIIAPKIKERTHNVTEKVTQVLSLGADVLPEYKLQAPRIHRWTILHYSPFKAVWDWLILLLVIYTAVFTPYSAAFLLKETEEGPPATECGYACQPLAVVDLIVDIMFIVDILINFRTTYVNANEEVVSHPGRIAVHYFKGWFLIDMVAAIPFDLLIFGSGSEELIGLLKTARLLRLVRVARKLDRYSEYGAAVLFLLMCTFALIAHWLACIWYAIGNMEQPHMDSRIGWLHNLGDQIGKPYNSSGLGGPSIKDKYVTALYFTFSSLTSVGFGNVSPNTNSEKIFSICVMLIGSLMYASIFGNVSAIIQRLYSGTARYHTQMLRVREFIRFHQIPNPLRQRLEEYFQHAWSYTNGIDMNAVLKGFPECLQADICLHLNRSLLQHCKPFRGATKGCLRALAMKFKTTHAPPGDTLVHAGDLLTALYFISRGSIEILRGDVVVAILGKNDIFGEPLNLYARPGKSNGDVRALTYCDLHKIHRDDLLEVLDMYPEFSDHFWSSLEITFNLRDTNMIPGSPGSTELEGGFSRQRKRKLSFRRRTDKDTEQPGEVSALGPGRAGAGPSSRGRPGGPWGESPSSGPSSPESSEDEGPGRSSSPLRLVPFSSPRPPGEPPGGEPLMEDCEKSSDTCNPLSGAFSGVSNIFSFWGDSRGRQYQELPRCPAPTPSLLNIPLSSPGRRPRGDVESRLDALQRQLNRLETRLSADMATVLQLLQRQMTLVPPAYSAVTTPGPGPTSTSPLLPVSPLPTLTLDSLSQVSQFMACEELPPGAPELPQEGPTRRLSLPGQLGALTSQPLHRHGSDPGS

SMILES	hERG % Remaining 30 μM [1]	Ki [2] [nM]	hERG % Remaining 10 μM [1]	EC50 [2] [nM]	IC50 [1] [nM]	hERG % Remaining 100 μM ([1]; 100 μM compound)
CC(C)N(C(=O)c1cc(F)ccc1Oc1cncnc1N1CC2(CCN(C[C@@H]3CC[C@@H](NS(=O)(=O)N(C)C(C)C)CO3)CC2)C1)C1CC(F)(F)C1 [Compound 119, N-(3,3-Difluorocyclobutyl)-5-fluoro-N-isopropyl-2-((4-(7-(((2S,5R)-5-((N-isopropyl-N-methylsulfamoyl)amino)tetrahydro-2H-pyran-2-yl)methyl)-2,7-diazaspiro[3.5]nonan-2-yl)pyrimidin-5-yl)oxy)benzamide]	+ (“+” means <33%)	< 1				
C[C@@H]1COC[C@@H](C)N1C(=O)c1cc(F)ccc1Oc1cncnc1N1CC2(CCN(C[C@@H]3CC[C@@H](NS(=O)(=O)c4ccccc4)CO3)CC2)C1 [Compound 120, N-((3R,6S)-6-((2-(5-(2-((3R,5R)-3,5-Dimethylmorpholine-4-carbonyl)-4-fluorophenoxy)pyrimidin-4-yl)-2,7-diazaspiro[3.5]nonan-7-yl)methyl)tetrahydro-2H-pyran-3-yl)benzenesulfonamide]	++ (“++” means ≥33% and <66%)	< 1	+++ (“+++” means ≥66%)	< 50		
C[C@@H]1COC[C@@H](C)N1C(=O)c1cc(F)ccc1Oc1cncnc1N1CC2(CCN(C[C@@H]3CC[C@@H](NS(=O)(=O)N4CCC4)CO3)CC2)C1 [Compound 121, N-((3R,6S)-6-((2-(5-(2-((3R,5R)-3,5-Dimethylmorpholine-4-carbonyl)-4-fluorophenoxy)pyrimidin-4-yl)-2,7-diazaspiro[3.5]nonan-7-yl)methyl)tetrahydro-2H-pyran-3-yl)azetidine-1-sulfonamide]	+++ (“+++” means ≥66%)	< 1				
Cc1nc(S(=O)(=O)N[C@@H]2CC[C@@H](CN3CCC4(CC3)CN(c3ncncc3Oc3ccc(F)cc3C(=O)N3[C@H](C)COC[C@H]3C)C4)OC2)cs1 [Compound 122, N-((3R,6S)-6-((2-(5-(2-((3R,5R)-3,5-Dimethylmorpholine-4-carbonyl)-4-fluorophenoxy)pyrimidin-4-yl)-2,7-diazaspiro[3.5]nonan-7-yl)methyl)tetrahydro-2H-pyran-3-yl)-2-methylthiazole-4-sulfonamide]	+++ (“+++” means ≥66%)	< 1			≥ 50000	
C[C@@H]1COC[C@@H](C)N1C(=O)c1cc(F)ccc1Oc1cncnc1N1CC2(CCN(C[C@@H]3CC[C@@H](NS(=O)(=O)N(C)C)CO3)CC2)C1 [Compound 123, {[(3R,6S)-6-{[2-(5-{2-[(3R,5R)-3,5-Dimethylmorpholine-4-carbonyl]-4-fluorophenoxy}pyrimidin-4-yl)-2,7-diazaspiro[3.5]nonan-7-yl]methyl}oxan-3-yl]sulfamoyl}dimethylamine]	+++ (“+++” means ≥66%)	< 1				
CCNS(=O)(=O)N[C@@H]1CC[C@@H](CN2CCC3(CC2)CN(c2ncncc2Oc2ccc(F)cc2C(=O)N2[C@H](C)COC[C@H]2C)C3)OC1 [Compound 125, {[(3R,6S)-6-{[2-(5-{2-[(3R,5R)-3,5-Dimethylmorpholine-4-carbonyl]-4-fluorophenoxy}pyrimidin-4-yl)-2,7-diazaspiro[3.5]nonan-7-yl]methyl}oxan-3-yl]sulfamoyl}(ethyl)amine]	+++ (“+++” means ≥66%)	< 1				
C[C@@H]1COC[C@H](C)N1C(=O)c1cc(F)ccc1Oc1cncnc1N1CC2(CCN(C[C@@H]3CC[C@@H](NS(=O)(=O)c4ccccc4)CO3)CC2)C1 [Compound 130, N-((3R,6S)-6-((2-(5-(2-((3S,5R)-3,5-Dimethylmorpholine-4-carbonyl)-4-fluorophenoxy)pyrimidin-4-yl)-2,7-diazaspiro[3.5]nonan-7-yl)methyl)tetrahydro-2H-pyran-3-yl)benzenesulfonamide]	++ (“++” means ≥33% and <66%)	< 1	+++ (“+++” means ≥66%)	< 50		
CC(C)N(C(=O)c1cc(F)ccc1Oc1cncnc1N1CC2(CCN(C[C@@H]3CC[C@@H](NS(=O)(=O)N4CCC4)CO3)CC2)C1)[C@H]1CCOC1 [Compound 134, 2-((4-(7-(((2S,5R)-5-(Azetidine-1-sulfonamido)tetrahydro-2H-pyran-2-yl)methyl)-2,7-diazaspiro[3.5]nonan-2-yl)pyrimidin-5-yl)oxy)-5-fluoro-N-isopropyl-N-((S)-tetrahydrofuran-3-yl)benzamide]	+++ (“+++” means ≥66%)	< 1				
CC(C)N(CCC#N)C(=O)c1cc(F)ccc1Oc1cncnc1N1CC2(CCN(C[C@@H]3CC[C@@H](NS(=O)(=O)c4ccccc4)CO3)CC2)C1 [Compound 136, N-(2-Cyanoethyl)-5-fluoro-N-isopropyl-2-((4-(7-(((2S,5R)-5-(phenylsulfonamido)tetrahydro-2H-pyran-2-yl)methyl)-2,7-diazaspiro[3.5]nonan-2-yl)pyrimidin-5-yl)oxy)benzamide]	+ (“+” means <33%)	< 1	+++ (“+++” means ≥66%)	< 50		
CC(C)N(C)C(=O)c1cc(F)ccc1Oc1cncnc1N1CC2(CCN(C[C@@H]3CC[C@@H](NS(=O)(=O)N4CCC4)CO3)CC2)C1 [Compound 138, 2-((4-(7-(((2S,5R)-5-(Azetidine-1-sulfonamido)tetrahydro-2H-pyran-2-yl)methyl)-2,7-diazaspiro[3.5]nonan-2-yl)pyrimidin-5-yl)oxy)-5-fluoro-N-isopropyl-N-methylbenzamide]	+++ (“+++” means ≥66%)	< 1				
CCNS(=O)(=O)N[C@@H]1CC[C@@H](CN2CCC3(CC2)CN(c2ncncc2Oc2ccc(F)cc2C(=O)N(CC)C(C)C)C3)OC1 [Compound 141, N-Ethyl-2-((4-(7-(((2S,5R)-5-((N-ethylsulfamoyl)amino)tetrahydro-2H-pyran-2-yl)methyl)-2,7-diazaspiro[3.5]nonan-2-yl)pyrimidin-5-yl)oxy)-5-fluoro-N-isopropylbenzamide]	+++ (“+++” means ≥66%)	< 1				
CCN(C(=O)c1cc(F)ccc1Oc1cncnc1N1CC2(CCN(C[C@@H]3CC[C@@H](NS(=O)(=O)NC4CC4)CO3)CC2)C1)C(C)C [Compound 142, 2-((4-(7-(((2S,5R)-5-((N-Cyclopropylsulfamoyl)amino)tetrahydro-2H-pyran-2-yl)methyl)-2,7-diazaspiro[3.5]nonan-2-yl)pyrimidin-5-yl)oxy)-N-ethyl-5-fluoro-N-isopropylbenzamide]	++ (“++” means ≥33% and <66%)	< 1				
CNS(=O)(=O)N[C@@H]1CC[C@@H](CN2CCC3(CC2)CN(c2ncncc2Oc2ccc(F)cc2C(=O)N(C(C)C)C(C)C)C3)OC1 [Compound 143, 5-Fluoro-N,N-diisopropyl-2-((4-(7-(((2S,5R)-5-((N-methylsulfamoyl)amino)tetrahydro-2H-pyran-2-yl)methyl)-2,7-diazaspiro[3.5]nonan-2-yl)pyrimidin-5-yl)oxy)benzamide]	+++ (“+++” means ≥66%)	< 1			≥ 50000	+++ (“+++” means ≥66%)
CCNS(=O)(=O)N[C@@H]1CC[C@@H](CN2CCC3(CC2)CN(c2ncncc2Oc2ccc(F)cc2C(=O)N(C(C)C)C(C)C)C3)OC1 [Compound 144, 2-((4-(7-(((2S,5R)-5-((N-Ethylsulfamoyl)amino)tetrahydro-2H-pyran-2-yl)methyl)-2,7-diazaspiro[3.5]nonan-2-yl)pyrimidin-5-yl)oxy)-5-fluoro-N,N-diisopropylbenzamide]	+++ (“+++” means ≥66%)	< 1				
CCNS(=O)(=O)N[C@@H]1CC[C@@H](CN2CCC3(CC2)CN(c2ncncc2Oc2ccc(F)cc2C(=O)N(C(C)C)C2CC2)C3)OC1 [Compound 145, N-Cyclopropyl-2-((4-(7-(((2S,5R)-5-((N-ethylsulfamoyl)amino)tetrahydro-2H-pyran-2-yl)methyl)-2,7-diazaspiro[3.5]nonan-2-yl)pyrimidin-5-yl)oxy)-5-fluoro-N-isopropylbenzamide]	+++ (“+++” means ≥66%)	< 1				
CCNS(=O)(=O)N[C@@H]1CC[C@@H](CN2CCC3(CC2)CN(c2ncncc2Oc2ccc(F)cc2C(=O)N(CC(F)F)C(C)C)C3)OC1 [Compound 147, N-(2,2-Difluoroethyl)-2-((4-(7-(((2S,5R)-5-((N-ethylsulfamoyl)amino)tetrahydro-2H-pyran-2-yl)methyl)-2,7-diazaspiro[3.5]nonan-2-yl)pyrimidin-5-yl)oxy)-5-fluoro-N-isopropylbenzamide]	+++ (“+++” means ≥66%)	< 1	+++ (“+++” means ≥66%)		≥ 50000	
CC(C)N(CC(F)F)C(=O)c1cc(F)ccc1Oc1cncnc1N1CC2(CCN(C[C@@H]3CC[C@@H](NS(=O)(=O)NCC4CC4)CO3)CC2)C1 [Compound 148, 2-((4-(7-(((2S,5R)-5-((N-(Cyclopropylmethyl)sulfamoyl)amino)tetrahydro-2H-pyran-2-yl)methyl)-2,7-diazaspiro[3.5]nonan-2-yl)pyrimidin-5-yl)oxy)-N-(2,2-difluoroethyl)-5-fluoro-N-isopropylbenzamide]	+++ (“+++” means ≥66%)	< 1				
CC(C)N(CC(F)F)C(=O)c1cc(F)ccc1Oc1cncnc1N1CC2(CCN(C[C@@H]3CC[C@@H](NS(=O)(=O)NC4CC4)CO3)CC2)C1 [Compound 149, 2-((4-(7-(((2S,5R)-5-((N-Cyclopropylsulfamoyl)amino)tetrahydro-2H-pyran-2-yl)methyl)-2,7-diazaspiro[3.5]nonan-2-yl)pyrimidin-5-yl)oxy)-N-(2,2-difluoroethyl)-5-fluoro-N-isopropylbenzamide]	+++ (“+++” means ≥66%)	< 1				

From patent publication US11919901B2 (Syndax Pharmaceuticals, Inc., priority 2021, dated 2024)
